The text below walks through data of patent US12617779B2, “Self degradation-type CDK9 inhibitor prodrug and liposome encapsulating same” (Sumitomo Pharma Co., Ltd., priority 2021, dated 2026).

Each structure is given as a SMILES string.

The nature of data set [1]: Evaluation of conversion rate to active form in human plasma (Experimental Example 3). The data set is classed as in vitro ADME. The conditions noted are these: 0.2 μmol/L; for Conversion to Alvocidib in human plasma: Examples up to 60 minutes, Comparative Examples up to 120 minutes. In short, it runs like this: (§1)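 LC-MS/MS (positive ESI) followed the parent and released Alvocidib during 37° C incubation of 0.2 μmol/L compound in human or BALB/c mouse plasma, sampled at 0/30/60 or 0/60/120 min. Remaining parent is expressed versus the 0-min peak; conversion versus a 0.2 μmol/L Alvocidib standard.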

Data set [2] in a line: Evaluation of conversion rate to active form in BALB/c mouse plasma (Experimental Example 3). The data set is classed as in vitro ADME. The conditions noted are these: 0.2 μmol/L; for Conversion to Alvocidib in BALB/c mouse plasma: Examples up to 60 minutes, Comparative Examples up to 120 minutes. In short, it runs like this:
as §1

Data set [3] can be described thus: Pharmacokinetic test, intravenous solution and liposome formulations in mice (Experimental Example 6). The data set is classed as in vivo. The conditions noted are these: female BALB/c mice. How it is done: This was used as a solution formulation.
This was used as a liposome formulation.
Hydrogenated soybean phosphatidylcholine (COATSOME NC-21E, manufactured by NOF CORPORATION, 3.238 g), cholesterol (manufactured by Sigma, 1.160 g) and 1,2-disteroyl-rac-glycero-3-methylpolyoxyethylen 2000 (SUNBRIGHT GS-020, manufactured by NOF CORPORATION, 0.983 g) were dissolved in tert-butyl alcohol (300 mL) warmed to 65° C. The solution was placed in an eggplant flask and frozen in a dry ice-acetone bath, and then the tert-butyl alcohol was removed by evaporation under reduced pressure to give a lipid mixture.
To the above lipid mixture was added to a 250 mM ammonium sulfate solution (100 mL), and the mixture was warmed to 65° C., and dispersed by a homogenizer (ULTRA-TURRAX, manufactured by IKA) to give a crude liposome dispersion. […] The solution was filtered through a 0.22 μm membrane filter to adjust the total lipid concentration to 75 mM (75 μmol/mL). […] The solution was adjusted to pH 5 to 6 with 1 mol/L aqueous sodium hydroxide solution, warmed in a 65° C. water bath for 3 minutes, and ice-cooled. The liposome outer solution was replaced with 10 mM tartrate buffer solution/10% sucrose solution (pH 4) using a dialysis cassette (Slide-A-Lyzer G2 Dialysis Cassettes 20K MWCO, manufactured by Thermo Scientific), followed by filtration through a 0.22 μm membrane filter to adjust the concentration.
The solution formulation or liposome formulation was instantly administered intravenously to 7-week-old female BALB/c mice, and the blood was collected over time from the jugular vein without anesthesia up to 24 hours after administration for the solution formulation administration group and up to 72 hours after administration for the liposome formulation administration group. […] The plasma sample was centrifuged, and the concentrations of the test compound and Alvocidib in the obtained supernatant were determined by LC-MS/MS.

On to `C[C@H](N)C(=O)O[C@@H]1CN(C)CC[C@@H]1c1c(O)cc(O)c2c(=O)cc(-c3ccccc3Cl)oc12` [Comparative Example 7, reference compound], for which the “Production rate (%) of Alvocidib” value in data set [1] (human, 0 min) was 6%; in data set [1] (human, 60 min), 26%; in data set [1] (human, 120 min), 32%; in data set [2] (BALB/c, mouse, 0 min), 1%; in data set [2] (BALB/c, mouse, 60 min) it was 64%; in data set [2] (BALB/c, mouse, 120 min), 79%. The “Residual rate (%) of test compound” value is reported as 100% in data set [1] (human, 0 min); 77% in data set [1] (human, 60 min); 65% in data set [1] (human, 120 min); 100% in data set [2] (BALB/c, mouse, 0 min); 25% in data set [2] (BALB/c, mouse, 60 min); 10% in data set [2] (BALB/c, mouse, 120 min).

In the case of `CN1CC[C@H](c2c(O)cc(O)c3c(=O)cc(-c4ccccc4Cl)oc23)[C@H](OC(=O)[C@@H](N)CO)C1` [Comparative Example 9, reference compound], the “Production rate (%) of Alvocidib” value in data set [1] (human, 0 min) worked out at 3%; in data set [1] (human, 60 min), 18%; in data set [1] (human, 120 min) it was 25%; in data set [2] (BALB/c, mouse, 0 min) it was 3%; in data set [2] (BALB/c, mouse, 60 min), 33%; in data set [2] (BALB/c, mouse, 120 min), 43%. The “Residual rate (%) of test compound” value was 100% in data set [1] (human, 0 min); 85% in data set [1] (human, 60 min); 80% in data set [1] (human, 120 min); 100% in data set [2] (BALB/c, mouse, 0 min); 70% in data set [2] (BALB/c, mouse, 60 min); 54% in data set [2] (BALB/c, mouse, 120 min).

`CCN(C[C@@H]1CCCCN1)C(=O)Oc1cc(O)c2c(=O)cc(-c3ccccc3Cl)oc2c1[C@H]1CCN(C)C[C@H]1O` [Example 1, 2-(2-chlorophenyl)-5-hydroxy-8-[(3S,4R)-3-hydroxy-1-methylpiperidin-4-yl]-4-oxo-4H-1-benzopyran-7-yl ethyl{[(2S)-piperidin-2-yl]methyl}carbamate ditrifluoroacetate]: the “Residual rate (%) of test compound” value in data set [1] (Human plasma, 37° C., 0 min) came to 100%; in data set [1] (Human plasma, 37° C., 30 min), 6%; in data set [1] (Human plasma, 37° C., 60 min), 0%; in data set [2] (Mouse plasma, 37° C., 0 min), 100%; in data set [2] (Mouse plasma, 37° C., 30 min) it was 24%; in data set [2] (Mouse plasma, 37° C., 60 min), 3%. Moreover, the “Conversion to Alvocidib in human plasma” value in data set [1] (37° C.) is given as “proceeded rapidly”. Also, the “Blood retention of liposome formulation compared with the corresponding solution formulation” value in data set [3] was “higher blood retention”. Also, the “Conversion to Alvocidib in BALB/c mouse plasma” value in data set [2] (37° C.) is reported as “proceeded rapidly”.

`CCN(C[C@H]1CCCCN1)C(=O)Oc1cc(O)c2c(=O)cc(-c3ccccc3Cl)oc2c1[C@H]1CCN(C)C[C@H]1O` [Example 2, 2-(2-chlorophenyl)-5-hydroxy-8-[(3S,4R)-3-hydroxy-1-methylpiperidin-4-yl]-4-oxo-4H-1-benzopyran-7-yl ethyl{[(2R)-piperidin-2-yl]methyl}carbamate]: the “Residual rate (%) of test compound” value is given as 100% in data set [1] (Human plasma, 37° C., 0 min); 4% in data set [1] (Human plasma, 37° C., 30 min); 2% in data set [1] (Human plasma, 37° C., 60 min); 100% in data set [2] (Mouse plasma, 37° C., 0 min); 25% in data set [2] (Mouse plasma, 37° C., 30 min); 4% in data set [2] (Mouse plasma, 37° C., 60 min). For the same compound, the “Conversion to Alvocidib in human plasma” value in data set [1] (37° C.) is on record as “proceeded rapidly”. The “Blood retention of liposome formulation compared with the corresponding solution formulation” value in data set [3] was “higher blood retention”. The “Conversion to Alvocidib in BALB/c mouse plasma” value in data set [2] (37° C.) is “proceeded rapidly”.

`CN1CC[C@H](c2c(OC(=O)N(C)C[C@@H]3CCCCN3)cc(O)c3c(=O)cc(-c4ccccc4Cl)oc23)[C@H](O)C1` [Example 3, 2-(2-chlorophenyl)-5-hydroxy-8-[(3S,4R)-3-hydroxy-1-methylpiperidin-4-yl]-4-oxo-4H-1-benzopyran-7-yl methyl{[(2S)-piperidin-2-yl]methyl}carbamate]: the “Residual rate (%) of test compound” value in data set [1] (Human plasma, 37° C., 0 min) worked out at 100%; in data set [1] (Human plasma, 37° C., 30 min), 3%; in data set [1] (Human plasma, 37° C., 60 min), 0%; in data set [2] (Mouse plasma, 37° C., 0 min), 100%; in data set [2] (Mouse plasma, 37° C., 30 min), 8%; in data set [2] (Mouse plasma, 37° C., 60 min), 0%. Further, the “Conversion to Alvocidib in human plasma” value in data set [1] (37° C.) is reported as “proceeded rapidly”. Moreover, the “Blood retention of liposome formulation compared with the corresponding solution formulation” value in data set [3] is given as “higher blood retention”. Moreover, the “Conversion to Alvocidib in BALB/c mouse plasma” value in data set [2] (37° C.) was “proceeded rapidly”.

Take `CN1CC[C@H](c2c(OC(=O)N(C)C[C@H]3CCCCN3)cc(O)c3c(=O)cc(-c4ccccc4Cl)oc23)[C@H](O)C1` [Example 4, 2-(2-chlorophenyl)-5-hydroxy-8-[(3S,4R)-3-hydroxy-1-methylpiperidin-4-yl]-4-oxo-4H-1-benzopyran-7-yl methyl{[(2R)-piperidin-2-yl]methyl}carbamate]: the “Residual rate (%) of test compound” value in data set [1] (Human plasma, 37° C., 0 min) came to 100%; in data set [1] (Human plasma, 37° C., 30 min), 4%; in data set [1] (Human plasma, 37° C., 60 min) it was 4%; in data set [2] (Mouse plasma, 37° C., 0 min) it was 100%; in data set [2] (Mouse plasma, 37° C., 30 min), 5%; in data set [2] (Mouse plasma, 37° C., 60 min), 3%. Further, in data set [1] (37° C.), the “Conversion to Alvocidib in human plasma” value is recorded as “proceeded rapidly”. In addition, the “Blood retention of liposome formulation compared with the corresponding solution formulation” value in data set [3] is listed as “higher blood retention”. Besides, the “Conversion to Alvocidib in BALB/c mouse plasma” value in data set [2] (37° C.) is “proceeded rapidly”.

`CCCN(C[C@@H]1CCCCN1)C(=O)Oc1cc(O)c2c(=O)cc(-c3ccccc3Cl)oc2c1[C@H]1CCN(C)C[C@H]1O` [Example 5, 2-(2-chlorophenyl)-5-hydroxy-8-[(3S,4R)-3-hydroxy-1-methylpiperidin-4-yl]-4-oxo-4H-1-benzopyran-7-yl {[(2S)-piperidin-2-yl]methyl}propylcarbamate]: the “Residual rate (%) of test compound” value is reported as 100% in data set [1] (Human plasma, 37° C., 0 min); 1% in data set [1] (Human plasma, 37° C., 30 min); 0% in data set [1] (Human plasma, 37° C., 60 min); 100% in data set [2] (Mouse plasma, 37° C., 0 min); 36% in data set [2] (Mouse plasma, 37° C., 30 min); 8% in data set [2] (Mouse plasma, 37° C., 60 min). In addition, the “Conversion to Alvocidib in human plasma” value in data set [1] (37° C.) is on record as “proceeded rapidly”. In data set [3], the “Blood retention of liposome formulation compared with the corresponding solution formulation” value is reported as “higher blood retention”. Further, in data set [2] (37° C.), the “Conversion to Alvocidib in BALB/c mouse plasma” value is reported as “proceeded rapidly”.

For the compound `CCCN(C[C@H]1CCCCN1)C(=O)Oc1cc(O)c2c(=O)cc(-c3ccccc3Cl)oc2c1[C@H]1CCN(C)C[C@H]1O` [Example 6, 2-(2-chlorophenyl)-5-hydroxy-8-[(3S,4R)-3-hydroxy-1-methylpiperidin-4-yl]-4-oxo-4H-1-benzopyran-7-yl {[(2R)-piperidin-2-yl]methyl}propylcarbamate], the “Residual rate (%) of test compound” value worked out at 100% in data set [1] (Human plasma, 37° C., 0 min); 3% in data set [1] (Human plasma, 37° C., 30 min); 2% in data set [1] (Human plasma, 37° C., 60 min); 100% in data set [2] (Mouse plasma, 37° C., 0 min); 26% in data set [2] (Mouse plasma, 37° C., 30 min); 2% in data set [2] (Mouse plasma, 37° C., 60 min). In addition, in data set [1] (37° C.), the “Conversion to Alvocidib in human plasma” value was “proceeded rapidly”. Further, the “Blood retention of liposome formulation compared with the corresponding solution formulation” value in data set [3] is recorded as “higher blood retention”. The “Conversion to Alvocidib in BALB/c mouse plasma” value in data set [2] (37° C.) was “proceeded rapidly”.

For the compound `CN1CC[C@H](c2c(OC(=O)N(CCF)CC3CCCCN3)cc(O)c3c(=O)cc(-c4ccccc4Cl)oc23)[C@H](O)C1` (stereo partly drawn) [Example 11, 2-(2-chlorophenyl)-5-hydroxy-8-[(3S,4R)-3-hydroxy-1-methylpiperidin-4-yl]-4-oxo-4H-1-benzopyran-7-yl (2-fluoroethyl) [(piperidin-2-yl)methyl]carbamate], the “Blood retention of liposome formulation compared with the corresponding solution formulation” value in data set [3] was “higher blood retention”.
